From patent publication US20070270475A1, “4-Methoxy-Pyrrolidine-2-Carboxylic Acid Compounds and Derivatives Thereof as Hepatitis C Virus Inhibitors” (priority 2004, published 2007)

Columns and labels:
[1] = tested on: Huh-7 HCV replicon cells (sub-line 5-15; genotype 1b); experiment: Replicon ELISA cell based assay, genotype 1b (sub-line 5-15); parameters: species or system HCV genotype 1b; conditions: Hepatitis C virus, Huh-7 genotype 1b replicon sub-line 5-15, 72 hours
Description: (§1) Replicon ELISA Cell Based Assay
(§2) 100 μL of medium containing 10% FCS were added to each well of clear, flat-bottomed 96 well microplates, excepting wells in the top row. Test compound was diluted in assay medium to twice the final required starting concentration from a 40 mM stock solution in DMSO. 200 μL of the starting dilution were introduced into two wells each in the top row and doubling dilutions made down the plate by the sequential transfer of 100 μL aliquots with thorough mixing in the wells; the final 100 μL were discarded. The two bottom rows were not used for compound dilutions. Huh-7 HCV replicon cell monolayers nearing confluency were stripped from growth flasks with versene-trypsin solution and the cells were resuspended in assay medium at either 2×10^5 cells/mL (sub-line 5-15; genotype 1b; Lohmann, V., Korner, F., Koch, J-O., Herian, U., Thielmann, L. and Bartenschlager, R., 1999, Science, 285, pp 110-113) or at 3×10^5 cells/mL (genotype 1a; Gu, B., Gates, A.T., Isken, O., Behrens, S. E. and Sarisky, R. T., J. Virol., 2003, 77, 5352-5359). 100 μL of cell suspension were added to all wells and the plates incubated at 37° C. for 72 hours in a 5% CO2 atmosphere.
(§3) Following incubation, the assay medium was aspirated from the plates. The cell sheets were washed by gentle immersion in phosphate buffered saline (PBS), which was then aspirated off, and fixed with acetone:methanol (1:1) for 5 minutes. Following a further wash with PBS, 100 μL of ELISA diluent (PBS+0.05% v/v Tween 20+2% w/v skimmed milk powder) were added to all wells and the plates incubated at 37° C. for 30 minutes on an orbital platform. The diluent was removed and each well then received 50 μL of a 1/200 dilution of anti-HCV specific, murine, monoclonal antibody (either Virostat #1872 or #1877), except for wells in one of the compound-free control rows which received diluent alone to act as negative controls. The plates were incubated at 37° C. for 2 hours and washed 3 times with PBS/0.05% Tween 20, then 50 μL of horseradish peroxidase conjugated, anti-mouse, rabbit polyclonal serum (Dako #P0260), diluted 1/1000, were added to all wells. The plates were incubated for a further hour, the antibody removed and the cell sheets washed 5 times with PBS/Tween and blotted dry. The assay was developed by the addition of 50 μL of ortho-phenylenediamine/peroxidase substrate in urea/citrate buffer (SigmaFast, Sigma #P-9187) to each well, and colour allowed to develop for up to 15 minutes. The reaction was stopped by the addition of 25 μL per well of 2 M sulphuric acid and the plates were read at 490 nm on a Fluostar Optima spectrophotometer.
(§4) The substrate solution was removed and the plates were washed in tap water, blotted dry and the cells stained with 5% carbol fuchsin in water for 30 minutes. The stain was discarded and the cell sheets washed, dried and examined microscopically to assess cytotoxicity.
(§5) The absorbance values from all compound-free wells that had received both primary and secondary antibodies were averaged to obtain a positive control value. The mean absorbance value from the compound-free wells that had not received the primary antibody was used to provide the negative (background) control value. The readings from the duplicate wells at each compound concentration were averaged and, after the subtraction of the mean background from all values, were expressed as a percentage of the positive control signal. The quantifiable and specific reduction of expressed protein detected by the ELISA in the presence of a drug can be used as a measure of replicon inhibition. GraFit software (Erithacus Software Ltd.) was used to plot the curve of percentage inhibition against compound concentration and derive the 50% inhibitory concentration (IC50) for the compound.

[2] = tested on: Huh-7 HCV replicon cells (genotype 1a); experiment: Replicon ELISA cell based assay, genotype 1a; parameters: species or system HCV genotype 1a; conditions: Hepatitis C virus, Huh-7 genotype 1a replicon, 72 hours
Description: as §1, §2, §3, §4, §5

SMILES | IC50 [1] [µM] | IC50 [2] [µM]
COC[C@H]1C[C@@](Cc2ccsn2)(C(=O)O)N(C(=O)c2ccc(C(C)(C)C)c(OC)c2)[C@H]1c1nccs1 (single isomer, unassigned; enantiomer a) [Example 5] | < 0.15 | < 10
COC[C@H]1C[C@@](Cn2cccn2)(C(=O)O)N(C(=O)c2ccc(C(C)(C)C)c(OC)c2)[C@H]1c1nccs1 (single isomer, unassigned) [Example 7] | < 0.15 | < 10
COC[C@H]1C[C@@](Cc2cscn2)(C(=O)O)N(C(=O)c2ccc(C(C)(C)C)c(OC)c2)[C@H]1c1nccs1 (single isomer, unassigned; enantiomer a) [Example 12] | < 0.15 | < 10
COC[C@H]1C[C@@](Cc2cscn2)(C(=O)O)N(C(=O)c2ccc(C(C)(C)C)c(OC)c2)[C@H]1c1nccs1 (racemic) [Example 3, rel-(2R,4S,5R)-1-(3-Methoxy-4-tert-butylbenzoyl)-4-(methoxymethyl)-5-(1,3-thiazol-2-yl)-2-(1,3-thiazol-4-ylmethyl)pyrrolidine-2-carboxylic acid] | < 0.15 | < 10
COC[C@H]1C[C@@](Cn2cccn2)(C(=O)O)N(C(=O)c2ccc(C(C)(C)C)c(OC)c2)[C@H]1c1ncc(C)s1 (single isomer, unassigned; enantiomer a) [Example 11] | < 0.15 | < 10
COC[C@H]1C[C@@](Cc2ccsn2)(C(=O)O)N(C(=O)c2ccc(C(C)(C)C)c(OC)c2)[C@H]1c1nccs1 (racemic) [Example 4, rel-(2R,4S,5R)-1-(3-Methoxy-4-tert-butylbenzoyl)-4-(methoxymethyl)-5-(1,3-thiazol-2-yl)-2-(1,2-thiazol-3-ylmethyl)pyrrolidine-2-carboxylic acid] | < 0.15 | < 10
COC[C@H]1C[C@@](Cn2cccn2)(C(=O)O)N(C(=O)c2ccc(C(C)(C)C)c(OC)c2)[C@H]1c1nccs1 (racemic) [Example 6, rel-(2R,4S,5R)-1-(3-Methoxy-4-tert-butylbenzoyl)-4-(methoxymethyl)-2-(1H-pyrazol-1-ylmethyl)-5-(1,3-thiazol-2-yl)pyrrolidine-2-carboxylic acid] | < 0.15 | < 10
COC[C@H]1C[C@@](Cc2nccs2)(C(=O)O)N(C(=O)c2ccc(C(C)(C)C)c(OC)c2)[C@H]1c1ncc(C)s1 (racemic) [Example 8, rel-(2R,4S,5R)-1-(3-Methoxy-4-tert-butylbenzoyl)-4-(methoxymethyl)-5-(5-methyl-1,3-thiazol-2-yl)-2-(1,3-thiazol-2-ylmethyl)pyrrolidine-2-carboxylic acid] | 0.15 to 10 | < 10
COC[C@H]1C[C@@](CC(C)C)(C(=O)O)N(C(=O)c2ccc(C(C)(C)C)c(OC)c2)[C@H]1c1nccs1 (racemic) [Compound A, rel-(2S,4S,5R)-2-isobutyl-1-(3-methoxy-4-tert-butylbenzoyl)-4-methoxymethyl-5-(1,3-thiazol-2-yl)pyrrolidine-2-carboxylic acid, reference compound] | 0.15 to 10 | 10 to 100
COC[C@H]1C[C@@](Cc2ccccc2)(C(=O)O)N(C(=O)c2ccc(C(C)(C)C)c(OC)c2)[C@H]1c1nccs1 (racemic) [Compound E, rel-(2R,4S,5R)-2-benzyl-1-(3-methoxy-4-tert-butylbenzoyl)-4-methoxymethyl-5-(1,3-thiazol-2-yl)-pyrrolidine-2-carboxylic acid, reference compound] | 0.15 to 10 | > 100
COC[C@H]1C[C@@](Cc2ccsn2)(C(=O)O)N(C(=O)c2ccc(C(C)(C)C)c(OC)c2)[C@H]1c1ncc(C)s1 (racemic) [Example 9, rel-(2R,4S,5R)-1-(3-Methoxy-4-tert-butylbenzoyl)-4-(methoxymethyl)-5-(5-methyl-1,3-thiazol-2-yl)-2-(1,2-thiazol-3-ylmethyl)pyrrolidine-2-carboxylic acid] | < 0.15 | < 10
COC[C@H]1C[C@@](CC(C)C)(C(=O)O)N(C(=O)c2ccc(C(C)(C)C)c(OC)c2)[C@H]1c1nccs1 [Compound B, (2S,4S,5R)-2-isobutyl-1-(3-methoxy-4-tert-butylbenzoyl)-4-methoxymethyl-5-(1,3-thiazol-2-yl)pyrrolidine-2-carboxylic acid, reference compound] | 0.15 to 10 | 10 to 100
COC[C@H]1C[C@@](CC(C)C)(C(=O)O)N(C(=O)c2ccc(C(C)(C)C)c(OC)c2)[C@H]1c1ncc(C)s1 (racemic) [Compound C, rel-(2S,4S,5R)-2-isobutyl-1-(3-methoxy-4-tert-butylbenzoyl)-4-methoxymethyl-5-(5-methyl-1,3-thiazol-2-yl)pyrrolidine-2-carboxylic acid, reference compound] | – | 10 to 100
COC[C@H]1C[C@@](Cc2cscn2)(C(=O)O)N(C(=O)c2ccc(C(C)(C)C)c(OC)c2)[C@H]1c1ncc(C)s1 (single isomer, unassigned; enantiomer a) [Example 2] | < 0.15 | < 10
COC[C@H]1C[C@@](Cn2cccn2)(C(=O)O)N(C(=O)c2ccc(C(C)(C)C)c(OC)c2)[C@H]1c1ncc(C)s1 (racemic) [Example 10, rel-(2R,4S,5R)-1-(3-Methoxy-4-tert-butylbenzoyl)-4-(methoxymethyl)-5-(5-methyl-1,3-thiazol-2-yl)-2-(1H-pyrazol-1-ylmethyl)pyrrolidine-2-carboxylic acid] | < 0.15 | < 10
COC[C@H]1C[C@@](Cc2cscn2)(C(=O)O)N(C(=O)c2ccc(C(C)(C)C)c(OC)c2)[C@H]1c1ncc(C)s1 (racemic) [Example 1, rel-(2R,4S,5R)-1-(3-Methoxy-4-tert-butylbenzoyl)-4-(methoxymethyl)-5-(5-methyl-1,3-thiazol-2-yl)-2-(1,3-thiazol-4-ylmethyl)pyrrolidine-2-carboxylic acid] | < 0.15 | < 10
COCC1CC(CC(C)C)(C(=O)O)N(C(=O)c2ccc(C(C)(C)C)c(OC)c2)C1c1ncc(C)s1 (single isomer, unassigned; enantiomer a) [Compound D, reference compound] | 0.15 to 10 | 10 to 100
